Results taken from patent US10829493B2, “Compositions and methods for treating KIT- and PDGFRA-mediated diseases” (Blueprint Medicines Corporation, priority 2019, dated 2020).
Read-outs that look alike come from different tables or passages of the source.

How the values were obtained:
[1] = Brain penetration in rats, brain to plasma ratios (Kp,brain, Kpuu,brain); type: in vivo, Sprague-Dawley rats; conditions: for Rat Kp / Kp at 24 h: rat brain to plasma ratio; for Kp uu at 24 h / Kp at 24 h: Sprague-Dawley, rat, brain, intravenous, 1 mg/kg/hr; for Kp at 24 h: read-out: Rat Kp
Source text: To understand the brain penetration, brain to plasma ratios of the compounds were obtained in Sprague-Dawley (SD) rats. In vivo equilibrium distribution between blood and brain in preclinical species such as rats is a commonly used parameter to evaluate brain penetration. Kp,brain is the ratio of concentrations in brain and blood (Cbrain/Cplasma) The compound's passive diffusion characteristics, its affinity for membrane transporters at the blood-brain barrier (BBB), and the relative drug binding affinity differences between the plasma proteins and brain tissue influence the Kp,brain.
The animals received IV infusion of 1 mg/kg/hr of the compound over 24 hours via jugular vein cannulation. At 24 hours, blood was collected via tail vein bleeding or cardiac puncture (under anesthesia) and centrifuged to obtain plasma samples. Brain tissues were collected and homogenized with phosphate-buffered saline (PBS). The concentrations of the compounds were obtained in the plasma and brain homogenates by LC-MS/MS analysis.

KIT D816V [2] = target: KIT D816V (Homo sapiens (Human), UniProt P10721, D816V/V560G); assay: HMC1.2 autophosphorylation assay (phospho-Y719 KIT AlphaLISA); type: cell-based; conditions: HMC1.2 cell line, KIT autophosphorylation at tyrosine 719, 90 minutes; read-out: KIT (P-KIT HMC1.2 (nM))
Method: 10,000 HMC1.2 cells were incubated in 22 μL culture media (phenol-red free IMDM, no serum) in each well of a 384-well plate and serum starved overnight in a tissue culture incubator (5% CO2, 37° C.). […] 10 μL of 100 μg/mL streptavidin donor beads (Perkin Elmer) were added to each well, blocked from light with solid black adhesive and shaken at 300 rpm at room temperature for 2 hours. Fluorescence signal was obtained on Envision (Perkin Elmer) by AlphaScreen 384 well HTS protocol.

KIT D816V [3] = target: KIT D816V (Homo sapiens (Human), UniProt P10721, D816V); assay: KIT D816V biochemical enzymatic activity assay (EZReader 2 mobility shift); conditions: at APPKM for ATP, 20 μM ATP, 60 minutes
Source text: (§1) PDGFRα and KIT enzymatic activity was monitored using the Perkin Elmer electrophoretic mobility shift technology platform, the EZReader 2.
(§2) Within the linear, steady-state phase of the kinase enzymatic reaction, the mixed pool of phosphorylated (product) and non-phosphorylated (substrate) peptides was passed through the microfluidic system of the PerkinElmer EZ Reader 2, under an applied electric potential difference. The presence of the phosphate group on the product peptide provided a difference in mass and charge between that of the substrate peptide, resulting in a separation of the substrate and product pools in the sample (Perrin et al., Expert Opin Drug Discovery 2010 Jan. 5(1):51-63).
(§3) As the product and substrate peptide mixture passes the lasers within the instrument, these pools are detected (λex=488 nm, λem=568 nm) and resolved as separate peaks. The ratio between these peaks reflects the activity of the compound at that concentration, in that well, under those conditions.
(§4) All test articles were dissolved in 100% DMSO at a stock concentration of 10 mM. A 100×, 10-point, 4-fold serial dilution of all test compounds was created in 100% DMSO, starting at a relevant concentration, usually 1 mM. A volume of 0.130 μL of each concentration was transferred to the relevant well of a 384-well assay plate (Greiner 781 201) using a TTPLabtech Mosquito nano-liter dispenser. Using the Multidrop, the remaining constituents of the reaction were then added to the 0.130 μL of compound as follows:
The plate was read on a Caliper EZReader 2.

PDGFRα D842V = PDGFRα D842V (Homo sapiens (Human), UniProt P16234, D842V); assay: PDGFRα D842V biochemical enzymatic activity assay (EZReader 2 mobility shift); conditions: at APPKM for ATP, 25 μM ATP, 90 minutes
Source text: as §1, §2, §3
Inhibition of KIT (D816V) PDGFRα (D842V) Mutant Biochemical Enzymatic Activity
as §4
The reaction was stopped by the addition of 70 μl of Stop buffer (100 mM HEPES pH 7.5, 0.015% Brij 35, 35 mM EDTA and 0.2% of Coating Reagent 3, Caliper Lifesciences). The plate was read on a Caliper EZReader 2.

wt KIT kinase = wt KIT kinase (Homo sapiens (Human), UniProt P10721); assay: Wild-type KIT binding assay (Kd determination, phage-tagged kinase, qPCR)
Method: Kd Determinations. For most assays, including wt KIT kinase, kinase-tagged T7 phage strains were prepared in an E. coli host derived from the BL21 strain. E. coli were grown to log-phase and infected with T7 phage and incubated with shaking at 32° C. until lysis. […] The liganded beads were blocked with excess biotin and washed with blocking buffer (SeaBlock (Pierce), 1% BSA, 0.05% Tween 20, 1 mM DTT) to remove unbound ligand and to reduce non-specific binding. […] Test compounds were prepared as 111× stocks in 100% DMSO. Kds were determined using an 11-point 3-fold compound dilution series with three DMSO control points. […] The compounds were then diluted directly into the assays such that the final concentration of DMSO was 0.9%. All reactions were performed in polypropylene 384-well plate. Each was a final volume of 0.02 ml. […] The kinase concentration in the eluates was measured by qPCR.
Binding Constants (Kds). Binding constants (Kds) were calculated with a standard dose-response curve using the Hill equation: Response=Background+Signal−Background 1+(KdHill Slope/DoseHill Slope). The Hill Slope was set to −1. Curves were fitted using a non-linear least square fit with the Levenberg-Marquardt algorithm.

UT-7 cells = assay: UT-7 cell proliferation with SCF stimulation as a measure of wild-type KIT activity (CellTiter-Glo); type: cell-based, human; conditions: Homo sapiens, UT7, 72 h, SCF-stimulated UT-7 cell proliferation
Source text: UT-7 Cell Proliferation with SCF Stimulation Assay as a Measure of Wild-Type KIT Activity
UT-7 cells are human megakaryoblastic leukemia cell lines that can be grown in culture with dependence on granulocyte macrophage colony stimulating factor (GM-CSF) or stem cell factor (SCF). UT-7 cells respond to SCF stimulation by activation of the KIT receptor tyrosine kinase and subsequent downstream signaling that can support cell growth and proliferation (Kuriu et al, 1999; Komatsu et al, 1991; Sasaki et al, 1995). Test compounds were assayed for their ability to inhibit SCF-stimulated proliferation of UT-7 cells.
Inhibition of SCF-stimulated UT-7 cell proliferation was assessed using the CellTiter-Glo assay that quantifies the amount of adenosine triphosphate (ATP) present, which is a readout of metabolically active cells and is directly proportional to the number of viable cells in culture. The ability of test compounds to inhibit SCF-stimulated UT-7 cell proliferation was determined using a 10-point dose curve ranging from 25 μM to 95.4 pM of test compound.
UT-7 cells were maintained in IMDM supplemented with 10% FBS, 5 ng/mL GM-CSF and 100 units/mL Penicillin-Streptomycin and grown in a 37° C. humidified tissue culture incubator. UT-7 cells were washed once with serum free, GM-CSF free IMDM. Cells were then resuspended in IMDM containing 4% FBS and 50 ng/mL SCF and seeded at 2500 cells per well in a volume of 22 μL in a 384-well microplate. A 10-point dose concentration series of test compounds (25.0 μM to 95.4 pM) were then added to the cells in a volume of 3.1 μL to each well (0.25% DMSO final concentration) and placed in a tissue culture incubator (5% CO2, 37° C.) for 72 hours. After 3-days with test compound, CellTiter-Glo reagent was prepared fresh and 25 μL of reagent was added to each well. The plate was mixed by shaking for 10 minutes at RT at 300 rpm on a plate shaker. The plate was read on an EnVision plate reader using the Ultra Sensitive Luminescence protocol for a 384-well plate.

[4] = homogenate rat brain, read-out: Rat Kp, uu Homogenate
[5] = rat brain slice, read-out: Rat Kp, uu Brain slice

Sequence of KIT D816V (Homo sapiens (Human), UniProt P10721, D816V/V560G) (P10721 26-976 V560G/D816V): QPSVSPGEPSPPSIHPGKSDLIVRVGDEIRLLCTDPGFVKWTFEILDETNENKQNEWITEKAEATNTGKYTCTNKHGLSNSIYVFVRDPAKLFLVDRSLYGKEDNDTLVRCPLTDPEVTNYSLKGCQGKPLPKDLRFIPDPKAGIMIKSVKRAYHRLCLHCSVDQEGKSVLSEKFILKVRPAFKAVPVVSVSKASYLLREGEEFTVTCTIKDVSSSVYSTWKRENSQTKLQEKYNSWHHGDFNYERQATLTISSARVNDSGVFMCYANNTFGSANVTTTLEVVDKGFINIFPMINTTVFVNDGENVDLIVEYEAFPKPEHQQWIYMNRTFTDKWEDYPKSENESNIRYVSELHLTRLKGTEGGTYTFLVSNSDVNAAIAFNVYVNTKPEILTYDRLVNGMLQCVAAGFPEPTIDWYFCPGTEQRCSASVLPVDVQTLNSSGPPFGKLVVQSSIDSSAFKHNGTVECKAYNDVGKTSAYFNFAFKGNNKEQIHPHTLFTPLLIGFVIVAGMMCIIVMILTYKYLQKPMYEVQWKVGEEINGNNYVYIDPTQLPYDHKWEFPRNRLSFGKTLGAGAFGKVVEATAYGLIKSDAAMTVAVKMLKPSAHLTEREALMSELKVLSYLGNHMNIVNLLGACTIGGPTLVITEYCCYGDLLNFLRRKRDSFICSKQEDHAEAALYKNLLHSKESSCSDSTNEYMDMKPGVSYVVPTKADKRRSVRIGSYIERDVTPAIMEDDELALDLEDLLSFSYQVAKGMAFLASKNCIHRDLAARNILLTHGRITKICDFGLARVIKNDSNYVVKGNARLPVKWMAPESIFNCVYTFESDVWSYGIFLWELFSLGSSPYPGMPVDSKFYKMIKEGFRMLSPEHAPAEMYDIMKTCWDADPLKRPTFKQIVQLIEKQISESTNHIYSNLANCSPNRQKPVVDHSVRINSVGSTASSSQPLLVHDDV
Sequence of PDGFRα D842V (P16234 24-1089 D842V): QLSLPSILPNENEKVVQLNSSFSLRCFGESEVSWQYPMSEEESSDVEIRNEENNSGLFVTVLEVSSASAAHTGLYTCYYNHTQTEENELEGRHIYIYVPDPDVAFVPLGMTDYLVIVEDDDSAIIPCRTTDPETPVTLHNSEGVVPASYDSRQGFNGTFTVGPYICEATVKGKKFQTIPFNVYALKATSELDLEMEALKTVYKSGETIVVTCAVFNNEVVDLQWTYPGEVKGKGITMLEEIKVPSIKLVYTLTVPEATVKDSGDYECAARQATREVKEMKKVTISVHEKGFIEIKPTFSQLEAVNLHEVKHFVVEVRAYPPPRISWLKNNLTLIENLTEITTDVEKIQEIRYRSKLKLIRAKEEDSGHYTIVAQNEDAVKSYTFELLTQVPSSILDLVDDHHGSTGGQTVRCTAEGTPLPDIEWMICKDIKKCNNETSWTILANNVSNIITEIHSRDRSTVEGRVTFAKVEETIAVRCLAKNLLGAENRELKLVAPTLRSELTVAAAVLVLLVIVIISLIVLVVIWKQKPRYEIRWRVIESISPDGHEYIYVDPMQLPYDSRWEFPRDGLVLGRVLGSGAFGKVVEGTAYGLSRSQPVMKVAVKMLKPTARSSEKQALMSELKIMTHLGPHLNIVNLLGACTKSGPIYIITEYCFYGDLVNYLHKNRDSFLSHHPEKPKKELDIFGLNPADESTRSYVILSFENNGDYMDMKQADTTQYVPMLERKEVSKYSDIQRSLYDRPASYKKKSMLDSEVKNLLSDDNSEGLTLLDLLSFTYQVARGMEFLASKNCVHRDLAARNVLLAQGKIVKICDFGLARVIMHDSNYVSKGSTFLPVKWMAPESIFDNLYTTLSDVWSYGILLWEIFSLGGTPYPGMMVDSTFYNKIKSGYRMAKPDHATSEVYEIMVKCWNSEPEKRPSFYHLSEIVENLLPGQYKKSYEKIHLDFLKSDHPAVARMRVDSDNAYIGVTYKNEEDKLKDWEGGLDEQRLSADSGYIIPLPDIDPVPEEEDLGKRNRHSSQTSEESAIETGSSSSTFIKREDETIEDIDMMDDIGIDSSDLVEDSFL
Sequence of wt KIT kinase (P10721 26-976): as the sequence (P10721 26-976 V560G/D816V) above, with G535V, V791D counted along it
Sequence of KIT D816V (Homo sapiens (Human), UniProt P10721, D816V) (P10721 26-976 D816V): as the sequence (P10721 26-976 V560G/D816V) above, with G535V counted along it

SMILES | Rat Kp [1] | IC50 (KIT D816V [2]) [nM] | IC50 (KIT D816V [3]) [nM] | IC50 (PDGFRα D842V) [nM] | Kd (wt KIT kinase) [nM] | IC50 (UT-7 cells) [nM] | Kp uu at 24 h [1, 4] | Kp uu at 24 h [1, 5] | Kp at 24 h [1]
C[C@](N)(c1ccc(F)cc1)c1cnc(N2CCN(c3ncnn4cc(-c5cnn([C@H]6C[C@@H](O)C6)c5)cc34)CC2)nc1 [Compound 10, cis-3-(4-(4-(4-(5-((S)-1-Amino-1-(4-fluorophenyl)ethyl)pyrimidin-2-yl)piperazin-1-yl)pyrrolo[2,1-f][1,2,4]triazin-6-yl)-1H-pyrazol-1-yl)cyclobutanol] | 0.23 | < 4.5 | 0.31 to 1 | ≤ 0.3 | < 10 | < 90 | – | – | –
C[C@](N)(c1ccc(F)cc1)c1cnc(N2CCN(c3ncnn4cc(-c5cnn(C6CCOCC6)c5)cc34)CC2)nc1 [Compound 16, (S)-1-(4-Fluorophenyl)-1-(2-(4-(6-(1-(tetrahydro-2H-pyran-4-yl)-1H-pyrazol-4-yl)pyrrolo[2,1-f][1,2,4]triazin-4-yl)piperazin-1-yl)pyrimidin-5-yl)ethan-1-amine] | – | 4.6 to 10 | ≤ 0.3 | ≤ 0.3 | < 10 | 150 to 200 | ≤ 0.2 | ≤ 0.1 | 0.93
C[C@](N)(c1ccc(F)cc1)c1cnc(N2CCN(c3ncnn4cc(-c5cnn([C@H]6CC[C@@H]6O)c5)cc34)CC2)nc1 (single isomer, unassigned) [Compound 21] | – | < 4.5 | 0.31 to 1 | ≤ 0.3 | < 10 | 90.1 to 150 | 0.36 | ≤ 0.1 | –
C[C@](N)(c1ccc(F)cc1)c1cnc(N2CCN(c3ncnn4cc(-c5cnn(CC6COC6)c5)cc34)CC2)nc1 [Compound 8, (S)-1-(4-fluorophenyl)-1-(2-(4-(6-(1-(oxetan-3-ylmethyl)-1H-pyrazol-4-yl)pyrrolo[2,1-f][1,2,4]triazin-4-yl)piperazin-1-yl)pyrimidin-5-yl)ethan-1-amine] | – | < 4.5 | ≤ 0.3 | ≤ 0.3 | < 10 | < 90 | ≤ 0.2 | ≤ 0.1 | 0.43
C[C@](N)(c1ccc(F)cc1)c1cnc(N2CCN(c3ncnn4cc(-c5cnn([C@@H]6CCOC6)c5)cc34)CC2)nc1 [Compound 14, (S)-1-(4-Fluorophenyl)-1-(2-(4-(6-(1-((R)-tetrahydrofuran-3-yl)-1H-pyrazol-4-yl)pyrrolo[2,1-f][1,2,4]triazin-4-yl)piperazin-1-yl)pyrimidin-5-yl)ethanamine] | 0.35 | < 4.5 | ≤ 0.3 | ≤ 0.3 | < 10 | 150 to 200 | 0.22 | – | < 0.39
C[C@](N)(c1ccc(F)cc1)c1cnc(N2CCN(c3ncnn4cc(-c5cnn([C@@H]6COC[C@H]6O)c5)cc34)CC2)nc1 (single isomer, unassigned) [Compound 19] | – | < 4.5 | ≤ 0.3 | ≤ 0.3 | < 10 | 90.1 to 150 | – | 0.04 | –
C[C@](N)(c1ccc(F)cc1)c1cnc(N2CCN(c3ncnn4cc(-c5cnn([C@H]6CCOC6)c5)cc34)CC2)nc1 [Compound 15, (S)-1-(4-Fluorophenyl)-1-(2-(4-(6-(1-((S)-tetrahydrofuran-3-yl)-1H-pyrazol-4-yl)pyrrolo[2,1-f][1,2,4]triazin-4-yl)piperazin-1-yl)pyrimidin-5-yl)ethanamine] | – | < 4.5 | ≤ 0.3 | ≤ 0.3 | < 10 | 150 to 200 | 0.62 | ≤ 0.1 | 0.9
